The source of these data is patent publication US10376481B2, “Compounds and methods for inhibiting NHE-mediated antiport in the treatment of disorders associated with fluid retention or salt overload and gastrointestinal tract disorders” (ARDELYX, INC, priority 2012, dated 2019).

For this test, the target named is T1, human NHE3 (Homo sapiens, UniProt P48764).
T1 sequence (P48764 26-834): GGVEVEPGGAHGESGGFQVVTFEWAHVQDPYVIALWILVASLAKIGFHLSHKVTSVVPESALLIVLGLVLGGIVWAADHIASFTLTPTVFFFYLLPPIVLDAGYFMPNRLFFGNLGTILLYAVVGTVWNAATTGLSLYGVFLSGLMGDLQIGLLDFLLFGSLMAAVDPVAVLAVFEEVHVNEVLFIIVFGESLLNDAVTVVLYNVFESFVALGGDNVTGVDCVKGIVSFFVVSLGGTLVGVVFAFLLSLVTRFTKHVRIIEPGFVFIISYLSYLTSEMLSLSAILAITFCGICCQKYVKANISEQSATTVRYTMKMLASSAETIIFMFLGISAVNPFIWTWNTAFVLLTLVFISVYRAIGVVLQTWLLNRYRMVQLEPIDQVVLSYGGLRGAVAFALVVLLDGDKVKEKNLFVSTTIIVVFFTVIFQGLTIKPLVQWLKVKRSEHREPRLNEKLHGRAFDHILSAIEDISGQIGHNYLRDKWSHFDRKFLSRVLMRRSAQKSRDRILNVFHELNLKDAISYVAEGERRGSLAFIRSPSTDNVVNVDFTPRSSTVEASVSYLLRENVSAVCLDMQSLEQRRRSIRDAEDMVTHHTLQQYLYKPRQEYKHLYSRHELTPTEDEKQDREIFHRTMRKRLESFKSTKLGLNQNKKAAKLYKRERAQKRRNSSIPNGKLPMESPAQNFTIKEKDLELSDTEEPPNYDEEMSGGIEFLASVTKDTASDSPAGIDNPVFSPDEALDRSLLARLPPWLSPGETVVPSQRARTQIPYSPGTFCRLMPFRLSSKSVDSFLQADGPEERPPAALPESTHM
Put plainly: Cell-based assay of NHE-3 activity (human NHE3 inhibition assay). Also noted: expressed in transfected cells; host or cells: Opossum kidney (OK) cells (ATCC), electroporated. The conditions noted are these: OK cells with human NHE-3 gene, BCECF pH recovery, 0-30 μM test compound; for IC50: read-out: Human NHE3 pIC50 (converted). As to the method:
Rat or human NHE-3-mediated Na^+-dependent H^+ antiport was measured using a modification of the pH sensitive dye method originally reported by Paradiso (Proc. Natl. Acad. Sci. USA. (1984) 81(23): 7436-7440). Opossum kidney (OK) cells were obtained from the ATCC and propagated per their instructions. The rat NHE-3 gene (GenBank M85300) or the human NHE-3 gene (GenBank NM_004174.1) was introduced into OK cells via electroporation, and cells were seeded into 96 well plates and grown overnight. Medium was aspirated from the wells, cells were washed twice with NaCl-HEPES buffer (100 mM NaCl, 50 mM HEPES, 10 mM glucose, 5 mM KCl, 2 mM CaCl2, 1 mM MgCl2, pH 7.4), then incubated for 30 min at room temperature with NH4Cl-HEPES buffer (20 mM NH4Cl, 80 mM NaCl, 50 mM HEPES, 5 mM KCl, 2 mM CaCl2, 1 mM MgCl2, pH 7.4) containing 5 μM bis(acetoxymethyl) 3,3′-(3′,6′-bis(acetoxymethoxy)-5-((acetoxymethoxy)carbonyl)-3-oxo-3H-spiro[isobenzofuran-1,9′-xanthene]-2′,7′-diyl)dipropanoate (BCECF-AM). Cells were washed twice with Ammonium free, Na^+-free HEPES (100 mM choline, 50 mM HEPES, 10 mM glucose, 5 mM KCl, 2 mM CaCl2, 1 mM MgCl2, pH 7.4) and incubated in the same buffer for 10 minutes at room temperature to lower intracellular pH. […] Initial rates were plotted as the average 2 or more replicates, and pIC50 values were estimated using GraphPad Prism.

Structures are written as SMILES.

For `O=C(NCCCCNC(=O)NCCOCCOCCNS(=O)(=O)c1ccc(O[C@H]2c3ccccc3C[C@@H]2N2CC[C@@H](O)C2)cc1)NCCOCCOCCNS(=O)(=O)c1ccc(O[C@H]2c3ccccc3C[C@@H]2N2CC[C@@H](O)C2)cc1` [Example 31], the IC50 is less than 100 nM.

For `NC(CCC(=O)NCCOCCOCCOCCNS(=O)(=O)c1ccc(O[C@H]2c3ccccc3C[C@@H]2N2CCCCC2)cc1)(CCC(=O)NCCOCCOCCOCCNS(=O)(=O)c1ccc(O[C@H]2c3ccccc3C[C@@H]2N2CCCCC2)cc1)CCC(=O)NCCOCCOCCOCCNS(=O)(=O)c1ccc(O[C@H]2c3ccccc3C[C@@H]2N2CCCCC2)cc1` [Example 10, 4-amino-4-(13-oxo-1-(4-((1S,2S)-2-(piperidin-1-yl)-2,3-dihydro-1H-inden-1-yloxy)phenylsulfonamido)-3,6,9-trioxa-12-azapentadecan-15-yl)-N1,N7-bis(2-(2-(2-(2-(4-((1S,2S)-2-(piperidin-1-yl)-2,3-dihydro-1H-inden-1-yloxy)phenylsulfonamido)ethoxy)ethoxy)ethoxy)ethyl)heptanediamide], the IC50 was less than 100 nM.

As for `CN(C)[C@H]1Cc2c(Cl)cc(Cl)cc2[C@@H]1Oc1ccc(S(=O)(=O)NCCOCCOCCNC(=O)Nc2ccc(NC(=O)NCCOCCOCCNS(=O)(=O)c3ccc(O[C@H]4c5cc(Cl)cc(Cl)c5C[C@@H]4N(C)C)cc3)cc2)cc1` [Example 2, (S,S)—N,N′-(2,2′-(2,2′-(2,2′-(1,4-phenylenebis(azanediyl))bis(oxomethylene)bis(azanediyl)bis(ethane-2,1-diyl))bis(oxy)bis(ethane-2,1-diyl))bis(oxy)bis(ethane-2,1-diyl))bis(4-((1S,2S)-4,6-dichloro-2-(dimethylamino)-2,3-dihydro-1H-inden-1-yloxy)benzenesulfonamide)], the “Human NHE3 pIC50” value is “C (NHE3 pIC50 >7)”.

For the molecule `N[C@@H]1CCCN([C@H]2Cc3ccccc3[C@@H]2Oc2ccc(S(=O)(=O)NCCOCCOCCNC(=O)NCCCCNC(=O)NCCOCCOCCNS(=O)(=O)c3ccc(O[C@H]4c5ccccc5C[C@@H]4N4CCC[C@@H](N)C4)cc3)cc2)C1` [Example 28], the IC50 is 100 to 10000 nM.

Regarding `O=C(NCCCCNC(=O)NCCOCCOCCNS(=O)(=O)c1ccc(O[C@H]2c3cc(Cl)ccc3C[C@@H]2N2CCCCC2)cc1)NCCOCCOCCNS(=O)(=O)c1ccc(O[C@H]2c3cc(Cl)ccc3C[C@@H]2N2CCCCC2)cc1` [Example 18], the IC50 was less than 100 nM.
